Results as given in publication PMC11762167, “G Protein-Coupled Receptor 17 Inhibits Glucagon-like Peptide-1 Secretion via a Gi/o-Dependent Mechanism in Enteroendocrine Cells” (Biomolecules, 2024).

Key:
GLUTag cells [1] = assay: Endpoint cAMP (HTRF) in control-transduced GLUTag cells; type: cell-based, murine; design: Mean Diff. of cAMP, MDL29,951 vs FSK alone (Tukey): unit not given here; conditions: for Mean Diff. of cAMP, MDL29,951 vs FSK alone (Tukey): Ctl
Method: (§1) GLUTag cells were maintained in Dulbecco’s Modified Eagle Medium (DMEM) supplemented with 10% fetal bovine serum and 1% penicillin–streptomycin in a humidified incubator at 37 °C and 5% CO2. For adenovirus transduction, GLUTag cells were seeded into poly-D-lysine coated 96-well plates or 4-chamber slides. The next day, cells were transduced with adenoviruses (100–1250 viral particles per cell at time of seeding) as indicated. After 24–30 h, adenovirus-containing media was changed to serum-free growth media for overnight serum starvation. The following day, GLUTag cells were used for cAMP or calcium signaling assays, GLP-1 secretion assays, or immunostaining and imaging.
(§2) Endpoint cAMP measurements were conducted as follows. GLUTag cells were seeded into poly-D-lysine-coated 96-well plates and transduced with adenovirus as specified above and then tested for cAMP signaling. Medium was removed and cells were washed with cAMP stimulation buffer (Hanks’ balanced salt solution (HBSS), 20 mM HEPES, pH 7.4) and then incubated in cAMP stimulation buffer for 30 min at 37 °C and 5% CO2. Cells were then treated for 30 min with agonist and forskolin in the presence of 500 µM IBMX at 37 °C and 5% CO2. Stimulation buffer was then decanted, and cAMP lysis buffer (50 mM HEPES, 10 mM CaCl2, 0.35% Triton X-100, and 500 µM IBMX) was added and shaken at 700 rpm for 1 h. Lysate was transferred to a 384-well plate, and the cAMP levels were quantified using the Cisbio HTRF cAMP (Gi kit; Revvity, Waltham, MA, USA) according to the manufacturer’s protocol.

GLUTag cells [2] = assay: Calcium flux (Calcium 6) in control-transduced GLUTag cells; type: cell-based, murine; design: Mean Diff.: unit not given here; conditions: for Mean Diff.: Figure 1B, Ctl
Method: as §1
GLUTag cells were seeded into black, clear bottom, poly-D-lysine-coated 96-well plates. Cells were transduced and serum starved as specified above. Growth medium was then replaced with 100 μL/well assay buffer (HBSS, 20 mM HEPES, pH 7.4) and 100 μL/well Calcium 6 loading dye (R8190; Molecular Devices, San Jose, CA, USA). During dye loading, cells were incubated at 37 °C and 5% CO2 for 2 h. MDL29,951 or KCl was added to the wells and fluorescence (485 nm excitation, 525 nm emission, and 515 nm automatic emission cutoff) was measured using a Molecular Devices FlexStation3 (Molecular Devices) at 37 °C. For experiments with PTX, cells were pretreated with 100 ng/mL PTX overnight and 100 ng/mL PTX was included with Calcium 6 loading dye for calcium flux assays. For experiments with YM-254890, cells were pretreated for 30 min at 37 °C.

hGPR17S = target: T1, hGPR17S (Homo sapiens, UniProt Q13304); assay: GloSensor cAMP in HEK293 cells transfected with hGPR17S; type: cell-based
T1 construct: host or cells: HEK293 cells (ATCC CRL-1573), transient transfection
T1 sequence (Q13304 29-367): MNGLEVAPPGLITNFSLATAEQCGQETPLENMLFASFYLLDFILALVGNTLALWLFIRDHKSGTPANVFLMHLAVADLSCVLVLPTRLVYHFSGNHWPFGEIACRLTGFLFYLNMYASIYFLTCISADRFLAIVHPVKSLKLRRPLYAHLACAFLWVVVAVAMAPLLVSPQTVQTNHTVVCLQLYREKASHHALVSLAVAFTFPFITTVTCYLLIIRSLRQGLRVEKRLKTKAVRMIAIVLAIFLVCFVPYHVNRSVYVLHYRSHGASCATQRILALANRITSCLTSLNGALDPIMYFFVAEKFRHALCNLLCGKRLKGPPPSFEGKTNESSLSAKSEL
Method: HEK293 cells were maintained and transfected as previously described.
Live-cell, real-time cAMP measurements were performed using Promega (Madison, WI, USA) GloSensor cAMP luminescent biosensor technology. Glosensor cAMP experiments were conducted as previously described in GLUTag cells and HEK293 cells.

hGPR17L = hGPR17L (Homo sapiens, UniProt Q13304); assay: Endpoint cAMP (HTRF) in GLUTag cells expressing hGPR17L; type: cell-based; design: host or cells: GLUTag cells (murine enteroendocrine line), adenoviral transduction; conditions: for Predicted (LS) mean diff.: Fig 2B, Forskolin
Chain of hGPR17L (Q13304 whole entry): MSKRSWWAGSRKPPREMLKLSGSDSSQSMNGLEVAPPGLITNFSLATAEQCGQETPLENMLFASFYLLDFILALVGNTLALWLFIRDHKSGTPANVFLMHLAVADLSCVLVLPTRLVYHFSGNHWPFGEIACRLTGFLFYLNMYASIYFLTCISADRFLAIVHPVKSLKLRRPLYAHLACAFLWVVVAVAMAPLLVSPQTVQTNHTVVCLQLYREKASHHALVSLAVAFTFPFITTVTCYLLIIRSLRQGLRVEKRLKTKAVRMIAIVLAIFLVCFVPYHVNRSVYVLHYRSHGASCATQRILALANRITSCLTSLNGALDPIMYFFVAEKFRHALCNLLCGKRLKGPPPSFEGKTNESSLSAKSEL
Method: as §1, §2

[3] = 10 µM forskolin, GLUTag hGPR17L

## O=C(O)CCc1c(C(=O)O)[nH]c2cc(Cl)cc(Cl)c12 [MDL29,951]
GLUTag cells [1]; 300 nM PGE2, control transduction condition
  effect on PGE2-stimulated cAMP levels: no effect
GLUTag cells [1]; 300 nM PMA, control-transduced cells
  effect on cAMP levels upon PMA treatment: no effect
GLUTag cells [1]; log [MDL29,951] (M) -4.0
  Mean Diff. of cAMP, MDL29,951 vs FSK alone (Tukey): 0.00975
GLUTag cells [1]; log [MDL29,951] (M) -4.6
  Mean Diff. of cAMP, MDL29,951 vs FSK alone (Tukey): 0.066
GLUTag cells [1]; log [MDL29,951] (M) -5.2
  Mean Diff. of cAMP, MDL29,951 vs FSK alone (Tukey): 0.1185
GLUTag cells [1]; log [MDL29,951] (M) -5.8
  Mean Diff. of cAMP, MDL29,951 vs FSK alone (Tukey): 0.114
GLUTag cells [1]; log [MDL29,951] (M) -6.4
  Mean Diff. of cAMP, MDL29,951 vs FSK alone (Tukey): 0.183
GLUTag cells [1]; log [MDL29,951] (M) -7.0
  Mean Diff. of cAMP, MDL29,951 vs FSK alone (Tukey): 0.173
GLUTag cells [1]; log [MDL29,951] (M) -7.6
  Mean Diff. of cAMP, MDL29,951 vs FSK alone (Tukey): 0.2335
GLUTag cells [1]; log [MDL29,951] (M) -8.2
  Mean Diff. of cAMP, MDL29,951 vs FSK alone (Tukey): 0.2168
GLUTag cells [1]; log [MDL29,951] (M) -8.8
  Mean Diff. of cAMP, MDL29,951 vs FSK alone (Tukey): 0.0115
GLUTag cells [1]; log [MDL29,951] (M) -9.4
  Mean Diff. of cAMP, MDL29,951 vs FSK alone (Tukey): -0.09325
GLUTag cells [1]; control-transduced cells, 10 µM forskolin
  effect on forskolin-stimulated cAMP: no effect
GLUTag cells [2]; 30 µM MDL29,951, control-transduced cells
  peak ΔF/F, calcium flux: 0.01 ± 0.01
GLUTag cells [2]; log [MDL29,951] (M) -4.5 vs. Vehicle
  Mean Diff.: -0.01567
GLUTag cells [2]; log [MDL29,951] (M) -5.0 vs. Vehicle
  Mean Diff.: -0.01433
GLUTag cells [2]; log [MDL29,951] (M) -5.5 vs. Vehicle
  Mean Diff.: -0.0003333
GLUTag cells [2]; log [MDL29,951] (M) -6.0 vs. Vehicle
  Mean Diff.: 0.0006667
GLUTag cells [2]; log [MDL29,951] (M) -6.4 vs. Vehicle
  Mean Diff.: 0.01533
GLUTag cells [2]; log [MDL29,951] (M) -6.9 vs. Vehicle
  Mean Diff.: 0.002
GLUTag cells [2]; log [MDL29,951] (M) -7.4 vs. Vehicle
  Mean Diff.: 0.002667
GLUTag cells [2]; log [MDL29,951] (M) -7.9 vs. Vehicle
  Mean Diff.: 0.004333
GLUTag cells [2]; log [MDL29,951] (M) -8.3 vs. Vehicle
  Mean Diff.: -0.001667
GLUTag cells [2]; log [MDL29,951] (M) -8.8 vs. Vehicle
  Mean Diff.: -0.0003333
hGPR17S; 3 µM forskolin
  cAMP Maximum Inhibition (% Inhibition): 48±2.2%
  cAMP Potency (pEC50) (reversal of inhibition): 5.45±0.07
  cAMP Potency (pIC50): 8.83±0.09
hGPR17S; 3 µM forskolin, read-out: cAMP Potency EC50 (reversal of inhibition)
  EC50: 3600 nM
hGPR17S; 3 µM forskolin-stimulated GloSensor cAMP, read-out: cAMP Potency IC50
  IC50: 1.5 nM
hGPR17S; 100 μM MDL29,951, 3 µM forskolin
  cAMP Effect of 100 μM MDL (% Inhibition): 13±3.7%
hGPR17L; 100 nM YM-254890, 10 µM forskolin
  effect on forskolin-stimulated cAMP upon treatment with Gq inhibitor YM-254890: inhibited
hGPR17L; 100 ng/mL PTX, 10 µM forskolin
  inhibition of forskolin-stimulated cAMP in the presence of PTX: unable to inhibit
hGPR17L; 10 µM forskolin, 500 µM IBMX, GLUTag hGPR17L, read-out: IC50, inhibition of forskolin-stimulated cAMP
  IC50: 29 nM
hGPR17L; [3]
  pEC50, reversal of inhibition of forskolin-stimulated cAMP: 4.94 ± 0.09
  pIC50, inhibition of forskolin-stimulated cAMP: 7.54 ± 0.11
hGPR17L; 10 µM forskolin, GLUTag hGPR17L, read-out: EC50, reversal of inhibition of forskolin-stimulated cAMP at higher concentrations
  EC50: 12000 nM
hGPR17L; log [MDL29,951] (M) -4.0 vs. Vehicle, +100 nM YM-254890
  Predicted (LS) mean diff.: -29.51
hGPR17L; log [MDL29,951] (M) -4.0 vs. Vehicle, +100 ng/mL PTX
  Predicted (LS) mean diff.: 28.26
hGPR17L; log [MDL29,951] (M) -4.0 vs. Vehicle, +Vehicle
  Predicted (LS) mean diff.: -12.1
hGPR17L; log [MDL29,951] (M) -4.6 vs. Vehicle, +100 nM YM-254890
  Predicted (LS) mean diff.: -35.09
hGPR17L; log [MDL29,951] (M) -4.6 vs. Vehicle, +100 ng/mL PTX
  Predicted (LS) mean diff.: 20.2
hGPR17L; log [MDL29,951] (M) -4.6 vs. Vehicle, +Vehicle
  Predicted (LS) mean diff.: -15.6
hGPR17L; log [MDL29,951] (M) -5.2 vs. Vehicle, +100 nM YM-254890
  Predicted (LS) mean diff.: -39.39
